From PubChem BioAssay (NCI)
“And” between values parts separate entries of the source, which are not always exact repeats. Identical values can stand only once.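 In this assay, cells in 96-well plates receive the compound at five concentrations for 48 hours. Endpoints are linearly interpolated between the surrounding concentrations. The concentration for 50% growth inhibition is given as GI50. TGI: total growth inhibition.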 Starred links: 1 amine or outer side, 2 acyl side, 3 side chain; linkers in the order of their positions; H or OH if unused. Positions of bridges follow the written chain, without caps; N, C: chain ends. Non-standard residues stand in square brackets, D forms with d. Residues, ends and D or L forms follow the SMILES beside them. Chains are numbered I, II in the order given. Actinocin(1to9) = Cc1c2oc3c(C)ccc(C(=O)[*:2])c3nc-2c(C(=O)[*:1])c(N)c1=O; NMeV = CN[CH](C(=O)O)C(C)C; Sar = CNCC(=O)O

Key:
Test in all cases: growth of human tumour cells (NCI), 48 h
[1] = test system: HCT-15 colon
[2] = test system: PC-3 prostate
[3] = test system: BT-549 breast
[4] = test system: MOLT-4 leukemia
[5] = test system: HS 578T breast
[6] = test system: HL-60(TB) leukemia
[7] = test system: NCI-H522 lung
[8] = test system: SW-620 colon
[9] = test system: K-562 leukemia
[10] = test system: SR leukemia
[11] = test system: U251 CNS
[12] = test system: A549 NSCLC
[13] = test system: COLO 205 colon
[14] = test system: CAKI-1 renal
[15] = test system: SNB-75 CNS
[16] = test system: OVCAR-3 ovarian

SMILES | TGI [1] | TGI [2] | TGI [3] | TGI [4] | TGI [5] | TGI [6] | TGI [7] | TGI [8] | TGI [9] | TGI [10] | TGI [11] | TGI [12] | TGI [13] | TGI [14] | TGI [15] | TGI [16] | GI50 [1]
C=CCN(c1cc(OCc2ccccc2)c2[nH]cc(C)c2c1)S(C)(=O)=O | > 100 µM | > 100 µM | > 100 µM | > 100 µM | > 100 µM | > 100 µM | > 100 µM | > 100 µM | > 100 µM | > 100 µM | > 100 µM | > 100 µM | > 100 µM | > 100 µM | 55.6 µM | > 100 µM | 
COc1ccc(C2NC(=S)Nc3c2c(=O)oc2c3ccc3ccccc32)cc1 (centres undefined) | > 100 µM | > 100 µM | > 100 µM | > 100 µM | > 100 µM | > 100 µM | > 100 µM | > 100 µM | > 100 µM | > 100 µM | > 100 µM | > 100 µM | > 100 µM | > 100 µM | 96.4 µM | > 100 µM | 
CC(NC(=O)/C(=C/c1ccccc1)NC(=O)c1ccccc1)C(=O)O (centres undefined) | > 100 µM | > 100 µM | > 100 µM | > 100 µM | > 100 µM | > 100 µM | > 100 µM | > 100 µM | > 100 µM | > 100 µM | > 100 µM | > 100 µM | > 100 µM | > 100 µM | > 100 µM | > 100 µM | 
Oc1ccc(O)c(CNc2ccc(C(O)C(F)(F)F)cc2)c1 (centres undefined) | 30.7 µM | > 100 µM | 28.2 µM | 29.7 µM | > 100 µM | 16.4 µM | 5.67 µM | > 100 µM | > 100 µM | 83.6 µM | > 100 µM | > 100 µM | 37.8 µM | 29.7 µM | > 100 µM | 15.4 µM | 
O=c1[nH]c(Cc2ccccc2)nc2c1sc1nc3ccccc3n12 | > 100 µM | > 100 µM | > 100 µM | > 100 µM | > 100 µM | > 100 µM | > 100 µM | > 100 µM | > 100 µM | > 100 µM | > 100 µM | > 100 µM | > 100 µM | > 100 µM | > 100 µM | > 100 µM | 
C=C1C(=O)O[C@H]2C/C(C)=C/CC[C@@]3(C)O[C@](C)(CC[C@@H]3I)[C@@H](I)C[C@@H]12 | 12.2 µM | 22.9 µM | 12.4 µM | 13.6 µM | 26 µM | 20.2 µM | 8.64 µM | 12.4 µM | 29.9 µM | 8.2 µM | 11.7 µM | 18.2 µM | 12.5 µM | 14 µM | 12.4 µM | 8.63 µM | 
CCCCNC(=O)c1cc2c(cc1Cl)Sc1nccn1S2(=O)=O | > 100 µM | > 100 µM | > 100 µM | > 100 µM | > 100 µM | > 100 µM | > 100 µM | > 100 µM | > 100 µM | > 100 µM | > 100 µM | > 100 µM | > 100 µM | 34.3 µM | > 100 µM | > 100 µM | 
C=CCn1c(-c2ccc([N+](=O)[O-])cc2)cs/c1=N\C(P(=O)(O)O)P(=O)(O)O | > 100 µM | > 100 µM | > 100 µM | > 100 µM | > 100 µM | 90.6 µM | > 100 µM | > 100 µM | > 100 µM | > 100 µM | > 100 µM | > 100 µM | > 100 µM | > 100 µM | > 100 µM | > 100 µM | 
CC(C)C1C(=O)N(c2c(F)c(F)c(F)c(F)c2F)C(=S)N1CCS(=O)c1ccccc1 (centres undefined) | 31.8 µM | 29.3 µM | 30.9 µM | 49.7 µM | 62.6 µM | 19.2 µM | 12.6 µM | 35.5 µM | 39.6 µM | 16.2 µM | 28 µM | 40.1 µM | 29.9 µM | 9.86 µM | > 58.7 µM | 30.5 µM | 
CCC(C)C1NC(=O)C(NC(=O)c2c3nc4c(C(=O)NC5C(=O)NC(C(C)CC)C(=O)N6CCCC6C(=O)N(C)CC(=O)N(C)C(C(C)C)C(=O)OC5C)ccc(C)c4oc-3c(C)c(=O)c2N)C(C)OC(=O)C(C(C)C)N(C)C(=O)CN(C)C(=O)C2CCCN2C1=O (centres undefined) (I: TIP[Sar][NMeV] / II: TIP[Sar][NMeV]; ester I:1-I:C, II:1-II:C; linker I:N-II:N via Actinocin(1to9); configuration not given here) | 10.3 µM | 0.13 µM and 0.212 µM | 0.58 µM | 0.0144 µM | 0.0841 µM | 0.0186 µM | 0.00176 µM | 0.0776 µM | 0.0109 µM and 0.0132 µM | 0.00257 µM | 10.9 µM | 10.9 µM | 0.00309 µM | 0.0861 µM | 0.0329 µM | 0.0389 µM | 0.0109 µM
Cc1cc(C)n(CC(Cn2nc(C)cc2C)=C(/C(Cl)=C(/Cl)Nc2ccc([N+](=O)[O-])cc2)[N+](=O)[O-])n1 | > 31.5 µM | 12.7 µM | 15.7 µM | 4.77 µM | 33.2 µM | 4.3 µM | 5.01 µM | 17.7 µM | 11.5 µM | 8.49 µM | 13.5 µM | 13.3 µM | 5.36 µM | 5.98 µM | 14.3 µM | 15.2 µM | 
c1ccc2c(Cc3[nH]c4ccccc4c3Cc3c[nH]c4ccccc34)c[nH]c2c1 | 10.5 µM | 8.37 µM | 19.5 µM | 12 µM | 5.54 µM | 4.58 µM | 3.76 µM | 5.59 µM | 10.5 µM | 15.1 µM | 9.78 µM | 21.6 µM | 3.99 µM | 10.3 µM | 9.69 µM | 9.68 µM | 
O=c1[nH]c2nnc(COc3ccc(Cl)cc3Cl)n2nc1Cc1ccccc1 | > 100 µM | > 100 µM | > 100 µM | > 100 µM | > 100 µM | > 100 µM | > 100 µM | > 100 µM | > 100 µM | > 100 µM | 53.1 µM | > 100 µM | > 100 µM | > 100 µM | 38.8 µM | 74.3 µM | 
O=P12N(CCN1c1ccccc1)CCN2c1ccccc1 | > 100 µM | > 100 µM | > 100 µM | > 100 µM | > 100 µM | > 100 µM | > 100 µM | > 100 µM | > 100 µM | > 100 µM | > 100 µM | > 100 µM | > 100 µM | > 100 µM | > 100 µM | > 100 µM | 
O=C(NC1(c2cc3ccccc3s2)CCCCC1)C1CCC1 | > 100 µM | > 100 µM | > 100 µM | > 100 µM | 83.7 µM | > 100 µM | > 100 µM | > 100 µM | > 100 µM | > 100 µM | > 100 µM | > 100 µM | > 100 µM | > 100 µM | > 100 µM | > 100 µM | 
COc1ccc(N=NC(=O)NC(Cc2ccccc2)C(=O)O)cc1 (centres undefined) | > 100 µM | > 100 µM | > 100 µM | > 100 µM | > 100 µM | > 100 µM | > 100 µM | > 100 µM | > 100 µM | > 100 µM | > 100 µM | > 100 µM | > 100 µM | > 100 µM | > 100 µM | > 100 µM | 
CN(C)CCCc1cccc2[nH]c3c(c12)CN(C)CC3 | > 100 µM | > 100 µM | > 100 µM | > 100 µM | > 100 µM | > 100 µM | > 100 µM | > 100 µM | > 100 µM | 74.3 µM | > 100 µM | > 100 µM | > 100 µM | > 100 µM | > 100 µM | > 100 µM | 
O=c1ccn(CC2(CO)CCC2)c(=O)[nH]1 | > 100 µM | > 100 µM | > 100 µM | > 100 µM | > 100 µM | > 100 µM | > 100 µM | > 100 µM | > 100 µM | > 100 µM | > 100 µM | > 100 µM | > 100 µM | > 100 µM | > 100 µM | > 100 µM | 
